Measured values from ChEMBL document CHEMBL1921705, “Thiophene inhibitors of PDE4: crystal structures show a second binding mode at the catalytic domain of PDE4D2” (Bioorg Med Chem Lett, 2011).
The source made the active and inactive calls. No cut-off for these calls is given here.

Legend:
[1] = target: T1, 3',5'-cyclic-AMP phosphodiesterase 4D (Homo sapiens, UniProt Q08499); test: Inhibition of N-terminal 6His-tagged human recombinant PDE4D2 expressed in Escherichia coli BL21 (DE3) at 1 uM after 15 mins using [3H]cAMP by scintillation proximity assay
T1 sequence (Q08499 whole entry): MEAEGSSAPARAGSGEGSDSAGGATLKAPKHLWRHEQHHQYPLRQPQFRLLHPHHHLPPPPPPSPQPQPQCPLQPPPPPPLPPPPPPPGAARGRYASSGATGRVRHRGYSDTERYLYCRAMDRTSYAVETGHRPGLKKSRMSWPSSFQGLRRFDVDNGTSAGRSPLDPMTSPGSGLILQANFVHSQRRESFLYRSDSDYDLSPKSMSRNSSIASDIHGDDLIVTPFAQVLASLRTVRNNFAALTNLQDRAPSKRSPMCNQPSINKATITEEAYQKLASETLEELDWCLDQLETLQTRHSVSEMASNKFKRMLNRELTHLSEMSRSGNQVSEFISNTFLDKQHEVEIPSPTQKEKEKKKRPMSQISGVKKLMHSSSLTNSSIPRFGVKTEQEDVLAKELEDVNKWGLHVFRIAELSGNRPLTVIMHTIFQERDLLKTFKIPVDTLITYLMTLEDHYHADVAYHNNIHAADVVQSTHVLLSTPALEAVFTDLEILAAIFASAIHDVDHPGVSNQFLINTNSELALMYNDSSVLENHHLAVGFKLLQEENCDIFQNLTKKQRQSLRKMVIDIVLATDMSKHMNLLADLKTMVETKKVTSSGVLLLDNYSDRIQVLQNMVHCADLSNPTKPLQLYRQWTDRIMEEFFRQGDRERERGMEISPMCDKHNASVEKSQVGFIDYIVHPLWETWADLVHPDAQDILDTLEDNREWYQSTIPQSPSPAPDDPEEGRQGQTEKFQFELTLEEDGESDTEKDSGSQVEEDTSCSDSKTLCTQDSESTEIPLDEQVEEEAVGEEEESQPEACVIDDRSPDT

[2] = system: UMR106; test: Inhibition of PDE4D2 in rat UMR106 cell lysates at 1 uM after 15 mins using [3H]cAMP by scintillation proximity assay; format: cell-free
[3] = Inhibition of rat PDE4D2 in UMR106 cell lysates after 15 mins using [3H]cAMP by scintillation proximity assay; format: cell-free
[4] = system: UMR106; test: Inhibition of PDE4D2 in rat UMR106 cells coexpressing pCRE-luc assessed as activation of cREB protein at 10 uM after 4 hrs by measuring luciferase activity by luminescence assay; format: cell-based
[5] = target: T1, 3',5'-cyclic-AMP phosphodiesterase 4D; test: Inhibition of human recombinant PDE4D2 overexpressed in Escherichia coli after 15 mins using [3H]cAMP by scintillation proximity assay
[6] = system: UMR106; test: Inhibition of PDE4D2 in rat UMR106 cells coexpressing pCRE-luc assessed as activation of cREB protein after 4 hrs by measuring luciferase activity by luminescence assay; format: cell-based
[7] = system: UMR106; test: Inhibition of PDE4D2 in rat PTHrP-stimulated UMR106 cells coexpressing pCRE-luc assessed as activation of cREB protein after 4 hrs by measuring luciferase activity by luminescence assay; format: cell-based
[8] = Inhibition of PDE in rat UMR106 cells co-expressing CRE-luc assessed as PTH-induced cAMP accumulation by luciferase reporter gene assay; format: cell-based

Compound	inhibition [1] [%]	inhibition [2] [%]	other results
CCOC(=O)c1c(NC(=O)Cc2ccc(S(C)(=O)=O)cc2)sc2c1CCN(C(=O)OCC)C2	–	-4	–
CCOC(=O)c1c(NC(=O)Cc2ccccc2)sc2c1CCN(C(C)=O)C2	–	50	IC50 [3]: 1000 nM
CCOC(=O)c1c(NC(=O)c2ccccc2)sc2c1CCN(C(=O)OCC)C2	–	14	–
CCOC(=O)c1c(NC(=O)Cc2cccs2)sc2c1CCCC2	–	–	inhibition [4]: Active
CCOC(=O)c1c(NC(=O)Cc2ccccc2)sc2c1CCNC2	–	25	–
CCOC(=O)c1c(NC(=O)Cc2ccccc2OC)sc2c1CCN(C(=O)OCC)C2	–	37	–
CCOC(=O)c1c(NC(=O)Cc2ccccc2)sc2c1CCC2	–	–	inhibition [4]: Active
CCOC(=O)c1c(NC(=O)Cc2cccc(OC)c2)sc2c1CCN(C(=O)OCC)C2	–	9	–
CCOC(=O)c1c(NC(=O)CCc2ccccc2)sc2c1CCN(C(=O)OCC)C2	–	22	–
COc1ccc(C2CNC(=O)C2)cc1OC1CCCC1 (stereo unspecified) [ROLIPRAM]	–	–	IC50 [8]: 600 nM
N#Cc1c(NC(=O)Cc2ccccc2)sc2c1CCCC2	–	24	–
NC(=O)c1c(NC(=O)Cc2ccccc2)sc2c1CCCC2	–	15	–
CCOC(=O)c1c(NC(=O)Cc2ccccc2)sc2c1CC(C)(C)OC2	–	–	inhibition [4]: Active
CCOC(=O)c1c(NC(=O)c2cccc(S(=O)(=O)N3CCOCC3)c2)sc(C)c1C	–	–	inhibition [4]: Active
CCOC(=O)c1c(NCc2ccccc2)sc2c1CCN(C(=O)OCC)C2	–	33	–

Continued, in another order:

inhibition [1] [%]	Compound	inhibition [2] [%]	other results
61	CCOC(=O)N1CCc2c(sc(NC(=O)Cc3ccccc3)c2C(=O)OC2CCCCC2)C1	–	–
86	CCOC(=O)c1c(NC(=O)Cc2ccccc2)sc2c1CCN(C(=O)OCC)C2	85	inhibition [4]: Active; IC50 [5]: 100 nM
98	CCOC(=O)c1c(NC(=O)Cc2cccs2)sc2c1CCN(C(=O)OCC)C2	70	IC50 [3]: 182 nM
38	CCOC(=O)c1c(NC(=O)Cc2ccccc2)sc2c1CCN(C(=O)OC(C)(C)C)C2	–	–
65	O=C(Cc1ccccn1)Nc1sc2c(c1C(=O)OC1CCCC1)CCN(C(=O)NCc1ccccc1)C2	–	–
68	CCOC(=O)c1c(NC(=O)Cc2ccccc2)sc2c1CCCC2	–	inhibition [4]: Active; IC50 [5]: 1500 nM
95	CCOC(=O)N1CCc2c(sc(NC(=O)Cc3cccs3)c2C(=O)OC2CCCC2)C1	–	inhibition [6]: Dose-dependent effect; inhibition [7]: Dose-dependent effect
98	CCNC(=O)N1CCc2c(sc(NC(=O)Cc3ccccc3)c2C(=O)OCC)C1	–	–
23	CCOC(=O)c1c(NC(=O)Cc2ccc(OC)cc2)sc2c1CCN(C(=O)OCC)C2	26	–
72	CCOC(=O)c1c(NC(=O)Cc2ccccn2)sc2c1CCN(C(=O)OCC)C2	73	IC50 [3]: 80 nM
88	CCNC(=O)N1CCc2c(sc(NC(=O)Cc3cccs3)c2C(=O)OC2CCCC2)C1	–	–
-1	CCOC(=O)N1CCc2c(sc(NC(=O)Cc3ccccc3)c2C(N)=O)C1	18	–
